The source of these data is PMC2962730 (Journal of neurochemistry, 2010).

For the experiment, the target named is T1, hVAChT W325H (Homo sapiens, UniProt Q16572, W325H).
T1 sequence (Q16572 1-532 W325H): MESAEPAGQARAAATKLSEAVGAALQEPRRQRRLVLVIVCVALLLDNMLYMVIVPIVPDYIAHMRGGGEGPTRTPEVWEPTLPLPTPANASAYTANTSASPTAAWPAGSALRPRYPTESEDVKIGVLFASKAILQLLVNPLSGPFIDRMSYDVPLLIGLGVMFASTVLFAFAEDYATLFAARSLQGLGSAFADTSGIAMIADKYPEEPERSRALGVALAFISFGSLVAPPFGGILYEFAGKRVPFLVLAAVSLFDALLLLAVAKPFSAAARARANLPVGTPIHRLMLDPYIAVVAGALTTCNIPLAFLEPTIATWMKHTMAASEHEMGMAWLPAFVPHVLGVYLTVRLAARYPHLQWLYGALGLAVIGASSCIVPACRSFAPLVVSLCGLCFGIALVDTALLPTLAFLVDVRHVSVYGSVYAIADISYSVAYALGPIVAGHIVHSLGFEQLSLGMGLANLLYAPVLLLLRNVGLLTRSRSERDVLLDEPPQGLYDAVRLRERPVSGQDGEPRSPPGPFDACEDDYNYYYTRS
In words: [3H]ACh transport. The format is biochemical.

The term Km denotes the substrate concentration at which the rate is half of its maximum. Take `CC(=O)OCC[N+](C)(C)C` [ACh, acetylcholine]: the “Vmax/Bmax, ACh transport normalized to Bmax” value (pH 7.4) was 6.5 ± 1.1 min⁻¹. For the setting “read-out: KM, Michaelis-Menten constant for ACh transport, pH 7.4”, the Km was determined as 480 ± 170 µM.
